Reference: patent US11365207B2, “Sulfur-containing polycyclic-hydroxypyridone carboxamide analog against HIV” (priority 2018, dated 2022)
Counter-ions that a name gives are not always drawn. Like-named read-outs stand apart in the source and are kept apart here.

Tests used:
Type in all cases: cell-based
HIV-1IIIB [1] = assay: Inhibition of replication in HIV-1IIIB acute infectious C8166 cells (p24 antigen capture ELISA); conditions: for EC50: Human immunodeficiency virus 1, 72 h, P24 antigen, HIV-1IIIB acute infectious C8166 cells, 3 days; for inhibitory effect on HIV-1 replication in vitro: statement in words
Description: (§1) Human T lymphocytic series C8166 and HIV-1 experiment strain HIV-1IIIB are both from National Institutes of Health (NIH); cells are cultured in the RPMI-1640 complete culture medium containing 10% fetal bovine serum. HIV-1IIIB is prepared by using a conventional method, titration and calculation of TCID 50 of viruses are performed. Virus stock solution is subpackaged and stored at −70° C. Cells and viruses are cryopreserved and recovered according to conventional methods.
5. Measurement of HIV-1 p24 Antigen with p24 Antigen Capture ELISA Method
The 1 μg/plate of anti-mouse IgG Fc antibody was paved at 4° C. for overnight; the plate was sealed with 5% skimmed milk powder 4° C. for overnight; 100 μl/well mouse anti-p24 monoclonal antibody was added at 37° C. for 1 h; 100 μl/well (1:100) diluted rabbit anti-p24 polyclonal antibody (homemade) was added for 1 h at 37° C.; 100 μl/well (1:20000) diluted goat anti-rabbit IgG HRP was added for 1 h at 37° C.; OPD substrate reaction solution was added. After 10 min, 2M sulfuric acid was added to stop the reaction. The OD value was determined by Elx800 ELISA, and the wavelength was measured as 490/630 nm. The inhibition rate and EC50 of the drug on the p24 antigen replication and expression of HIV-1, namely, the concentration of the drug inhibiting 50% HIV-1 p24 antigen were calculated, namely, the concentration of the drug inhibiting 50% HIV-1 p24 antigen expression was calculated.
8. Inhibition Effect of Samples on Replication in Experiment Strain HIV-1IIIB Acute Infectious C8166 Cells
4×10^5 cells/ml C8166 cells and HIV-1IIIB MOI (multiplicity of infection=0.04) are infected for 2 h at 37° C., the obtained mixture is washed three times with PBS to remove free virus ions, 100 μl of cells are inoculated onto the 96-well plate containing 100 μl of to-be-detected compounds having different dilutions and cultured for 3 days under the conditions of 37° C. and 5% CO2. The cultural supernatant is centrifuged and then collected, and finally lysed and inactivated with 0.5% Triton X-100. The inhibition effect of the drug on HIV-1 replication is detected by using the p24 antigen capture ELISA method.
(§2) According to experiment results, fitted curves are drawn using Origin2016, the 50% effective concentrations (EC50) of the samples inhibiting viruses, 50% cell growth inhibition concentrations (CC50) and TI (therapeutic index) value against HIV-1 activity are calculated based on Reed & Muench method, and the TI value is TI=CC50/EC50.
3. HIV-1 p24 antigen expression inhibition rate (%)=(1−experiment well OD value/control well OD value)×100

HIV-1IIIB [2] = assay: Inhibition experiment for cytopathic effect (CPE) of HIV-1IIIB, syncytia formation in C8166 cells; conditions: Human immunodeficiency virus 1, 72 h, HIV-1IIIB in C8166 cells, 3 days
Description: as §1
7. Inhibition Experiment for Cytopathic Effect (CPE) of HIV-1IIIB
8×10^5/ml C8166 cells were inoculated onto the 96-well cell culture plate containing 100 μl/well drug subjected to gradient multiple proportion dilution in an amount of 50 μl/well, and then 50 μl HIV-1IIIB was added to dilute the supernatant, 1300 TCID 50/well. 3 repetition wells were set. Meanwhile, normal cell control wells without drugs were set. TDF and dolutegravir were positive drug controls. Culture was performed for 3 days under the conditions of 37° C. and 5% CO2, and syncytia formation were counted under the inverted microscope (100×). EC50 (50% Effective Concentration) is the concentration of the drug when 50% of syncytia formation is inhibited.
as §2
2. HIV-1 cytopathic cell inhibition rate (%)=(1−experiment well syncytia number/control well syncytia number)×100

[3] = Toxicity test of C8166 cells (MTT colorimetric method); conditions: human
Description: as §1
6. Toxicity Test of C8166 Cells
100 μl of 4×10^5 ml C8166 was mixed with different to-be-detected drug solutions, and 3 repetition wells were set. Meanwhile, control wells were set. Culture was performed for 3 days under the conditions of 37° C. and 5% CO2. Cytotoxicity was detected with MTT colorimetric method. The OD value was measured with EL ×800 ELIASA, the wavelength was measured as 570/630 nm. The CC50 value was calculated (50% cytotoxic concentration), namely, the concentration of the drug when toxicity was generated for 50% normal T lymphocytic series C8166.
as §2
1. Cell growth survival rate (%)=experiment well OD value/control well OD value×100

[4] = C8166 cells (T lymphocytic cell line), C8166 cells, MTT, 3 days, read-out: CC50

Compound	EC50 (HIV-1IIIB [1]; values given in pM) [pM]	EC50 (HIV-1IIIB [2]; values given in pM) [pM]	CC50 at 3 days [3, 4] [nM]	also measured
CC(C)(C)[C@H]1CSC2Cn3cc(C(=O)NCc4ccc(F)cc4F)c(=O)c(O)c3C(=O)N21 (stereo partly shown) [Compound 8]	781 ± 113	716 ± 103	26300 ± 350	
CC[C@@H]1CSC2Cn3cc(C(=O)NCc4ccc(F)cc4F)c(=O)c(O)c3C(=O)N21 (stereo partly shown) [Compound 3]	35.1 ± 6.02	28.9 ± 5.11	18600 ± 350	
O=C(NCc1ccc(F)cc1F)c1cn2c(c(O)c1=O)C(=O)N1C(C2)SC[C@@H]1c1ccccc1 (stereo partly shown) [Compound 10]			45160 ± 410	EC50 (HIV-1IIIB [1]; values in nM): 4160 ± 580 pM; EC50 (HIV-1IIIB [2]; values in nM): 3820 ± 510 pM
CC(C)C1CSC2Cn3cc(C(=O)NCc4ccc(F)cc4F)c(=O)c(O)c3C(=O)N21 (stereo not shown) [Compound 5]	188 ± 22.8	162 ± 18.1	16100 ± 300	
CC(C)[C@H]1CSC2Cn3cc(C(=O)NCc4ccc(F)cc4F)c(=O)c(O)c3C(=O)N21 (stereo partly shown) [Compound 6]	208 ± 36.1	182 ± 20.3	22600 ± 480	
C[C@@H]1CCSC2Cn3cc(C(=O)NCc4ccc(F)cc4F)c(=O)c(O)c3C(=O)N21 (stereo partly shown) [Compound 18]	11.1 ± 2.09	10.2 ± 2.11	14000 ± 210	inhibitory effect on HIV-1 replication in vitro (HIV-1IIIB [1]): extremely strong inhibition effects; inhibitory effect on HIV-1 replication in vitro (HIV-1IIIB [1]; listed as compound 18): strong inhibitory effect
CC(C)OC(=O)OCOP(=O)(CO[C@H](C)Cn1cnc2c(N)ncnc21)OCOC(=O)OC(C)C [TDF, tenofovir disoproxil fumarate, reference compound]			157000 ± 21400	EC50 (HIV-1IIIB [1]; values in nM): 8070 ± 4720 pM; EC50 (HIV-1IIIB [2]; values in nM): 12100 ± 11300 pM
C[C@H]1CSC2Cn3cc(C(=O)NCc4ccc(F)cc4)c(=O)c(O)c3C(=O)N21 (stereo partly shown) [Compound 66]	83.6 ± 10.9	75.3 ± 8.61	20100 ± 210	inhibitory effect on HIV-1 replication in vitro (HIV-1IIIB [1]): strong inhibitory effect
C[C@@H]1CSC2Cn3cc(C(=O)NCc4ccc(F)cc4F)c(=O)c(O)c3C(=O)N21 (stereo partly shown) [Compound 1]	201 ± 33.3	187 ± 31.1	20300 ± 210	
CC[C@H]1CSC2Cn3cc(C(=O)NCc4ccc(F)cc4F)c(=O)c(O)c3C(=O)N21 (stereo partly shown) [Compound 4]	35.1 ± 6.02	28.9 ± 5.11	18600 ± 350	
O=C(NCc1ccc(F)cc1F)c1cn2c(c(O)c1=O)C(=O)N1C(C2)SC[C@@H]1Cc1ccccc1 (stereo partly shown) [Compound 12]	589 ± 86.1	526 ± 77.1	28600 ± 320	
O=C(NCc1c(F)cc(F)cc1F)c1cn2c(c(O)c1=O)C(=O)N1C(C2)S[C@@H]2CC[C@H]1C2 (stereo partly shown) [Compound 34]	38.1 ± 6.52	35.9 ± 6.11		inhibitory effect on HIV-1 replication in vitro (HIV-1IIIB [1]): extremely strong inhibition effects; inhibitory effect on HIV-1 replication in vitro (HIV-1IIIB [1]; listed as compound 34): strong inhibitory effect; CC50 at 3 days [3]: 20700 ± 320 nM
C[C@H]1CSC2Cn3cc(C(=O)NCc4ccc(F)cc4F)c(=O)c(O)c3C(=O)N21 (stereo partly shown) [Compound 2]	18.1 ± 2.86	15.7 ± 2.61	11330 ± 110	inhibitory effect on HIV-1 replication in vitro (HIV-1IIIB [1]): extremely strong inhibition effects; inhibitory effect on HIV-1 replication in vitro (HIV-1IIIB [1]; listed as compound 2): strong inhibitory effect
CC(C)C[C@H]1CSC2Cn3cc(C(=O)NCc4ccc(F)cc4F)c(=O)c(O)c3C(=O)N21 (stereo partly shown) [Compound 20]	148 ± 20.1	125 ± 17	18300 ± 190	
C[C@@H]1CCO[C@H]2Cn3cc(C(=O)NCc4ccc(F)cc4F)c(=O)c(O)c3C(=O)N12 [Dolutegravir, reference compound]			26600 ± 2200	EC50 (HIV-1IIIB [1]; values in nM): 1050 ± 120 pM; EC50 (HIV-1IIIB [2]; values in nM): 2130 ± 330 pM
